From PubChem BioAssay AID330 (DTP/NCI, 2004)
Where “and” joins values, the source holds several entries; their conditions need not be identical. Equal entries are not always repeated. Toxic doses and inconclusive results are not listed.

System: P388 leukemia ip, CD2F1 mice, survival T/C
Assay: NCI In Vivo Anticancer Drug Screen. Data for tumor model P388 Leukemia (intraperitoneal) in CD2F1 (CDF1) mice
Settings: endpoint: median survival time, higher = longer survival
How it was run: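 Mice carrying the transplanted tumor received test compound or vehicle. Survival was recorded in each group, and the value is the treated-group measurement divided by that of the vehicle-treated control group.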

[1] = dose: 50.0 mg/kg/injection, schedule: Q01DX005 (ip), vehicle: saline with Tween-80
[2] = dose: 100.0 mg/kg/injection, schedule: Q01DX005 (ip), vehicle: saline with Tween-80
[3] = dose: 200.0 mg/kg/injection, schedule: Q01DX005 (ip), vehicle: saline with Tween-80
[4] = dose: 60.0 mg/kg/injection, schedule: Q01DX005 (ip), vehicle: saline with Tween-80
[5] = dose: 120.0 mg/kg/injection, schedule: Q01DX005 (ip), vehicle: saline with Tween-80
[6] = dose: 50.0 mg/kg/injection, schedule: Q01DX009 (ip), vehicle: Klucel (hydroxypropylcellulose) (HPC)
[7] = dose: 100.0 mg/kg/injection, schedule: Q01DX009 (ip), vehicle: Klucel (hydroxypropylcellulose) (HPC)
[8] = dose: 6.25 mg/kg/injection, schedule: Q01DX005 (ip), vehicle: saline with Tween-80
[9] = dose: 12.5 mg/kg/injection, schedule: Q01DX005 (ip), vehicle: saline with Tween-80
[10] = dose: 25.0 mg/kg/injection, schedule: Q01DX005 (ip), vehicle: saline with Tween-80
[11] = dose: 50.0 mg/kg/injection, schedule: Q01DX005 (ip), vehicle: Klucel (hydroxypropylcellulose) (HPC)
[12] = dose: 100.0 mg/kg/injection, schedule: Q01DX005 (ip), vehicle: Klucel (hydroxypropylcellulose) (HPC)
[13] = dose: 200.0 mg/kg/injection, schedule: Q01DX005 (ip), vehicle: Klucel (hydroxypropylcellulose) (HPC)
[14] = dose: 50.0 mg/kg/injection, schedule: Q01DX009 (ip), vehicle: saline with Tween-80
[15] = dose: 100.0 mg/kg/injection, schedule: Q01DX009 (ip), vehicle: saline with Tween-80
[16] = dose: 200.0 mg/kg/injection, schedule: Q01DX009 (ip), vehicle: saline with Tween-80
[17] = dose: 60.0 mg/kg/injection, schedule: Q01DX005 (ip), vehicle: Klucel (hydroxypropylcellulose) (HPC)
[18] = dose: 120.0 mg/kg/injection, schedule: Q01DX005 (ip), vehicle: Klucel (hydroxypropylcellulose) (HPC)
[19] = dose: 240.0 mg/kg/injection, schedule: Q01DX005 (ip), vehicle: Klucel (hydroxypropylcellulose) (HPC)
[20] = dose: 25.0 mg/kg/injection, schedule: Q01DX009 (ip), vehicle: Klucel (hydroxypropylcellulose) (HPC)

COc1ccc(-[n+]2noc(N)n2)cc1
T/C (dose: 3.13 mg/kg/injection, schedule: Q01DX009 (ip), vehicle: water): 99 % of control
T/C (dose: 6.25 mg/kg/injection, schedule: Q01DX009 (ip), vehicle: water): 102 % of control
T/C (dose: 12.5 mg/kg/injection, schedule: Q01DX009 (ip), vehicle: water): 108 % of control
T/C (dose: 25.0 mg/kg/injection, schedule: Q01DX009 (ip), vehicle: water): 116 % of control
T/C (dose: 50.0 mg/kg/injection, schedule: Q01DX009 (ip), vehicle: water): 120 % of control

CC(C)CC(NC(=O)CNC(=O)/C=C/c1ccco1)C(N)=O (stereo unspecified)
T/C [1]: 106 % of control
T/C [2]: 102 % of control
T/C [3]: 90 % of control

COC(=O)C(C)=O
T/C (dose: 100.0 mg/kg/injection, schedule: Q04DX003 (ip), vehicle: saline): 100 % of control
T/C (dose: 200.0 mg/kg/injection, schedule: Q04DX003 (ip), vehicle: saline): 90 % of control
T/C (dose: 400.0 mg/kg/injection, schedule: Q04DX003 (ip), vehicle: saline): 90 % of control

CCCCc1ccc(N2C(N)=NC(N)=NC2(C)C)cc1
T/C (dose: 3.12 mg/kg/injection, schedule: Q01DX005 (ip), vehicle: Klucel (hydroxypropylcellulose) (HPC)): 108 % of control and 106 % of control and 111 % of control
T/C (dose: 6.25 mg/kg/injection, schedule: Q01DX005 (ip), vehicle: Klucel (hydroxypropylcellulose) (HPC)): 110 % of control [middle of 4 runs]
T/C (dose: 12.5 mg/kg/injection, schedule: Q01DX005 (ip), vehicle: Klucel (hydroxypropylcellulose) (HPC)): 114 % of control [middle of 4 runs]
T/C (dose: 25.0 mg/kg/injection, schedule: Q01DX005 (ip), vehicle: Klucel (hydroxypropylcellulose) (HPC)): 120 % of control and 109 % of control

CS(=O)(=O)Cc1cc(-c2ccccc2)no1
T/C [4]: 100 % of control
T/C [5]: 99 % of control
T/C (dose: 240.0 mg/kg/injection, schedule: Q01DX005 (ip), vehicle: saline with Tween-80): 100 % of control

O=C1/C(=C/C=C/c2ccccc2)C(=S)SN1Cc1ccco1
T/C [6]: 96 % of control
T/C [7]: 97 % of control

Cc1ccc(NCCN2CCN(CCNc3ccc(C)c4sc5ccccc5c(=O)c34)CC2)c2c(=O)c3ccccc3sc12
T/C [8]: 106 % of control
T/C [9]: 98 % of control
T/C [10]: 105 % of control
T/C [1]: 97 % of control

CC1(C)CN(c2ccccc2)N(CO)C1=O
T/C (dose: 6.25 mg/kg/injection, schedule: Q04DX003 (ip), vehicle: saline): 101 % of control
T/C (dose: 12.5 mg/kg/injection, schedule: Q04DX003 (ip), vehicle: saline): 109 % of control

CC1C(=O)OC2CC34C5CC(C(C)(C)C)C36C(OC(=O)C6O)OC4(C(=O)O5)C21O (stereo unspecified)
T/C [11]: 100 % of control
T/C [12]: 100 % of control
T/C [13]: 92 % of control

O=c1[nH]c2nc(Cl)nc(Cl)c2[nH]1
T/C [1]: 98 % of control
T/C [2]: 94 % of control
T/C [3]: 93 % of control

Cc1cc(N2CCN(c3cc(C)c4ccccc4n3)CC2)nc2ccccc12
T/C [14]: 100 % of control
T/C [15]: 95 % of control
T/C [16]: 100 % of control

CCO/C=C1/N=C(c2ccc(OC)c(OC)c2)OC1=O
T/C [4]: 110 % of control

O=C(N/N=C/c1ccccc1[O-])c1ccccc1O.O=C(N/N=C/c1ccccc1[O-])c1ccccc1O.[Fe+2]
T/C [17]: 103 % of control
T/C [18]: 108 % of control
T/C [19]: 94 % of control

O=C(NC(Cc1ccccc1)C(=O)O)OCCc1ccccn1 (stereo unspecified)
T/C [17]: 104 % of control
T/C [18]: 92 % of control
T/C [19]: 102 % of control

Cc1cc(=O)n2c3c(c4c(cc13)c(CN(C)C)cc(=O)n4C)OC2
T/C (dose: 12.5 mg/kg/injection, schedule: Q01DX009 (ip), vehicle: saline with Tween-80): 111 % of control
T/C (dose: 25.0 mg/kg/injection, schedule: Q01DX009 (ip), vehicle: saline with Tween-80): 152 % of control
T/C [14]: 102 % of control and 118 % of control

C/C(=N/NC(N)=O)c1ccc2c3c(cc(Br)c2c1)CCCC3
T/C [8]: 99 % of control
T/C [9]: 99 % of control
T/C [10]: 95 % of control
T/C [1]: 91 % of control

O=[As](O)(O)c1ccc(Nc2nc(Cl)nc(Cl)n2)cc1
T/C (dose: 12.5 mg/kg/injection, schedule: Q01DX009 (ip), vehicle: Klucel (hydroxypropylcellulose) (HPC)): 96 % of control
T/C [20]: 104 % of control

CN(C)c1cc(=O)c2c(ccc3ccccc32)o1
T/C [14]: 92 % of control
T/C [15]: 95 % of control
T/C [16]: 95 % of control

COc1cc(OC(=O)NCCCl)cc(OC)c1OC
T/C [11]: 101 % of control
T/C [12]: 108 % of control
T/C [13]: 92 % of control

C/C=c1/[nH]c(=O)/c(=C\c2ccccc2)[nH]c1=O
T/C [20]: 89 % of control
T/C [6]: 91 % of control
T/C [7]: 89 % of control

O=S1(=O)c2ccccc2N(c2ccccc2)c2nnc(-c3ccccc3)n21
T/C (dose: 100.0 mg/kg/injection, schedule: Q04DX002 (ip), vehicle: saline with Tween-80): 93 % of control
T/C (dose: 200.0 mg/kg/injection, schedule: Q04DX002 (ip), vehicle: saline with Tween-80): 92 % of control
T/C (dose: 400.0 mg/kg/injection, schedule: Q04DX002 (ip), vehicle: saline with Tween-80): 92 % of control

NC(N)=NS(=O)(=O)c1ccc(N=c2c3ccccc3n(-c3ccccc3)c3ccccc23)cc1
T/C [1]: 90 % of control
T/C [2]: 87 % of control

CN1C(=O)C2CCC(=O)N2C(=S)N(C)C1=S (stereo unspecified)
T/C [4]: 106 % of control
T/C [5]: 104 % of control

CCCc1nc(N)[nH]c(=O)c1I
T/C [11]: 88 % of control
T/C [12]: 95 % of control
T/C [13]: 106 % of control

CC1=Nc2cc(N)nn2C(=O)C1
T/C [10]: 93 % of control
T/C [1]: 96 % of control
T/C [2]: 102 % of control
T/C [3]: 93 % of control

C[N+]1(CC(=O)O)C2CCC1CC(O)C2 (stereo unspecified)
T/C (dose: 25.0 mg/kg/injection, schedule: Q01DX009 (ip), vehicle: saline): 108 % of control
T/C (dose: 50.0 mg/kg/injection, schedule: Q01DX009 (ip), vehicle: saline): 98 % of control and 100 % of control
T/C (dose: 100.0 mg/kg/injection, schedule: Q01DX009 (ip), vehicle: saline): 101 % of control
T/C (dose: 200.0 mg/kg/injection, schedule: Q01DX009 (ip), vehicle: saline): 101 % of control and 96 % of control

Cc1[nH]c2ccc(N(C)C)cc2c(=O)c1CN(CCO)CCO
T/C [1]: 108 % of control
T/C [2]: 100 % of control
T/C [3]: 100 % of control

Cn1c(=O)c2c(Nc3ccccc3)ncnc2n(C)c1=O
T/C (dose: 35.0 mg/kg/injection, schedule: Q01DX005 (ip), vehicle: saline with Tween-80): 87 % of control
T/C (dose: 70.0 mg/kg/injection, schedule: Q01DX005 (ip), vehicle: saline with Tween-80): 87 % of control

OCC1OC(SC2OC(CO)C(O)C(O)C2O)C(O)C(O)C1O (stereo unspecified)
T/C (dose: 100.0 mg/kg/injection, schedule: Q01DX001 (ip), vehicle: water): 114 % of control
T/C (dose: 200.0 mg/kg/injection, schedule: Q01DX001 (ip), vehicle: water): 94 % of control
T/C (dose: 400.0 mg/kg/injection, schedule: Q01DX001 (ip), vehicle: water): 100 % of control
